11 compounds from ChEMBL document CHEMBL1138285, “Structure-activity relationships of adenosines with heterocyclic N6-substituents” (Bioorg Med Chem Lett, 2007) can be followed below.

Some results are limits rather than exact numbers.

Usually Ki stands for the dissociation constant of the complex between target and ligand, obtained from inhibition or displacement. High values mean weaker binding, low ones tighter binding.

In test [1] the test system is Adenosine receptor A1 (Mesocricetus auratus). In words: Intrinsic activity at adenosine A1 receptor expressed in DDT1 MF2 cells assessed as maximal inhibition of (-)-isoproterenol-stimulated cAMP accumulation. In general terms: Changes in cAMP serve as a functional read-out for many G protein-coupled receptors.
For test [2], the target named is Adenosine receptor A2a (Rattus norvegicus) (UniProt P30543). In words: Displacement of [3H]ZM-241385 from adenosine A2A receptor expressed in PC12 cell membrane.
For test [3], the species on record is Homo sapiens. Put plainly: Selectivity for adenosine A1 receptor over adenosine A2A receptor.

Chain of Adenosine receptor A2a (Rattus norvegicus) (P30543 whole entry, looked up): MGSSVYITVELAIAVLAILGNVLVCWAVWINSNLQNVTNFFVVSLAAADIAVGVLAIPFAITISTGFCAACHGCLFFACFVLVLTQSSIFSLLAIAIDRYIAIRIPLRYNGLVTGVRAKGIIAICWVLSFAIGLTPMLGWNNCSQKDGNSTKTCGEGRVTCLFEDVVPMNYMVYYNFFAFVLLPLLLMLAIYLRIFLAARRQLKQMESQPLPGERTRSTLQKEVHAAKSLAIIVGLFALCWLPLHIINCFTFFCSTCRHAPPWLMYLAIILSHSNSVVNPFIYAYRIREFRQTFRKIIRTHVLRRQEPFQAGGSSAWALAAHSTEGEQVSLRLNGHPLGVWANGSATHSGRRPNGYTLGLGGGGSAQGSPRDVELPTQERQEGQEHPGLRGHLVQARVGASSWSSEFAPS

On to `O=C(OCc1ccccc1Br)N1[C@H]2CC[C@H]1[C@H](Nc1ncnc3c1ncn3[C@@H]1O[C@H](CO)[C@@H](O)[C@H]1O)C2`, for which, in test [1], the Intrinsic activity worked out at 0.97. In test [2], this compound displayed a Ki of more than 100 µM.
In turn, `O=C(OCc1ccccc1)N1CC[C@@H](Nc2ncnc3c2ncn3[C@@H]2O[C@H](CO)[C@@H](O)[C@H]2O)C1` had an inhibition constant (Ki) in test [2] of more than 100 µM.
Same read-out and setting: then `OC[C@H]1O[C@@H](n2cnc3c(N[C@@H]4CC[Se]C4)ncnc32)[C@H](O)[C@@H]1O`, with 5.5 µM; and `O=C(OCc1ccccc1Cl)N1[C@H]2CC[C@H]1[C@H](Nc1ncnc3c1ncn3[C@@H]1O[C@H](CO)[C@@H](O)[C@H]1O)C2`, with more than 100 µM; and `O=C(OCc1ccccc1)N1[C@H]2CC[C@H]1[C@H](Nc1ncnc3c1ncn3[C@@H]1O[C@H](CO)[C@@H](O)[C@H]1O)C2`, with more than 100 µM.
Still for that read-out and setting: then `OC[C@H]1O[C@@H](n2cnc3c(N[C@@H]4CCSC4)ncnc32)[C@H](O)[C@@H]1O`, with 9.7 µM.
In the case of `CC(C)(C)OC(=O)N1CC[C@@H](Nc2ncnc3c2ncn3[C@@H]2O[C@H](CO)[C@@H](O)[C@H]2O)C1`, the Intrinsic activity in test [1] is 0.99. Besides, the Ratio Ki in test [3] was more than 4700. Besides, the inhibitory constant (Ki) in test [2] is more than 100 µM.
As for `OC[C@H]1O[C@@H](n2cnc3c(NC4CC5CCC4N5)ncnc32)[C@H](O)[C@@H]1O` (stereo not given in full), the inhibition constant (Ki) in test [2] was determined as 7.8 µM.
Take `OC[C@H]1O[C@@H](n2cnc3c(N[C@@H]4CCOC4)ncnc32)[C@H](O)[C@@H]1O` [TECADENOSON]: the Ki in test [2] was more than 100 µM.
In the case of `CC(C)(C)OC(=O)N1[C@H]2CC[C@H]1[C@H](Nc1ncnc3c1ncn3[C@@H]1O[C@H](CO)[C@@H](O)[C@H]1O)C2`, the Intrinsic activity in test [1] amounted to 1.01. The compound also gave an inhibitory constant (Ki) in test [2] of 34.7 µM.
In test [2], `CC(=O)N1CC[C@@H](Nc2ncnc3c2ncn3[C@@H]2O[C@H](CO)[C@@H](O)[C@H]2O)C1` came in with an inhibition constant Ki of more than 100 µM.
